Earlier results in US20200147194A1, “PEPTIDE VACCINE AND PEPTIDE VACCINE COMPOSITION FOR CRANIAL NERVE DISEASE” (KEIO UNIVERSITY, priority 2017, published 2020).

System: pre-alteration peptides (SEQ ID NO:12)

Substance: SEQ ID NO:16: SEQ ID NO:12 with leucine substituted for the second amino acid from the N-terminus; HLA-A*02:01-binding, VEGFR-2 (VLAMFFWLL; modified peptide)
- CTLs induced by stimulation by the peptide: recognition of pre-alteration peptides (SEQ ID NO:12): able recognize and damage
